Source: publication PMC10560666, “Four new triterpene saponins from Cephalaria speciosa and their potent cytotoxic and immunomodulatory activities” (Scientific Reports, 2023)
Marks after values point to notes of the source that are not given here.

Key:
[1] = system: CCD-34Lu normal human lung fibroblast cells; experiment: MTT cytotoxicity on CCD-34Lu healthy cells; format: cell-based; conditions: Homo sapiens, Fibroblast, 48 h, mean ± standard deviation, n = 3, – = Not detected
Experimental: (§1) The human leukemia monocyte cell line (THP-1), human lung adenocarcinoma cell line (A549), human breast cancer cells (MDA-MB231), human prostate adenocarcinoma cells (PC3), human malignant glioma cell line (U87MG), human cervical gland carcinoma cells (HeLa), human hepatocellular carcinoma cells (HEP-G2) and normal human lung fibroblast cells (CCD-34-LU) as a healthy cell line in our stock used in this study were purchased from American Type Culture Collection (ATCC). THP-1 cells were cultured in Roswell Park Memorial Institute (RPMI 1640) medium and MDA-MB231, PC3, U87 MG, HeLa, HEP-G2, and CCD-34-LU cells cultivated in Dulbecco’s Modified Eagle’s Medium/Nutrient Mixture F-12 (DMEM/F12) (Gibco, USA) medium supplemented with 10% FBS (Gibco, USA), 100U/mL of penicillin 100 µg/mL of streptomycin (Gibco, USA), and 2 mM L-glutamine (Gibco, USA).
(§2) Cytotoxicity of saponins (1–4) and their prosapogenins (2a–4a) were tested against A549, MDA-MB-231, PC-3, U87MG, HeLa, HepG-2 cancer cells and CCD34-Lu healthy cell line using MTT [3-(4,5-dimethylthiazole-2-yl)-2,5-diphenyltetrazolium bromide)] assay (Acros Organics, New Jersey, USA)[11], [23]. For this purpose, 1 × 10^5 cells/mL of all the cell lines were seeded in 96-well plates (Corning, USA) and cultivated in the at 37 °C overnight. After the incubation, the cells were incubated with different concentrations of saponins (50, 5, and 0.5 µg/mL), and doxorubicin (Sigma, USA) (20, 2, and 0.2 µg/mL) for 48 h at 37 °C. Then, the MTT was added as 20 μL (from the stock concentration of 2.5 mg/mL) to all wells and further incubated for 4 h at 37 °C. Following the incubation, the medium was removed and 150 µL DMSO was added to dissolve the formed formazan crystals. After the formazan crystals were completely dissolved, the optical density (OD) was measured at 570 nm with an UV/Vis microplate spectrophotometer (Thermo Fisher Scientific, USA). All data are the results of at least three independent experiments carried out in triplicate. Data are presented as mean ± standard error of the mean (SEM) of samples. The IC50 value was calculated using the GraphPad Prism 8 (USA) program based on the calculated percent viability values and absorbance values. The percentage of viability was determined by Eq. (1):1 %Viablecells=absorbanceoftreatedcells-absorbanceofblank/absorbanceofcontrol-absorbanceofblank×100

[2] = system: THP-1 derived macrophage cells; experiment: Macrophage polarization by flow cytometry (CD11b, CD80, CD163 MFI); format: cell-based, human; conditions: saponin 3 µg/mL, 24 h, PMA-differentiated THP-1, mean ± SD, n = 3
Experimental: To differentiate THP-1 cells into M0-THP-1, cells were seeded at an initial concentration of 1 × 10^6 cells/mL in 6-well plates (Corning, USA) and treated with 15 ng/mL phorbol 12-myristate 13—acetate (PMA, Sigma USA). Then incubate at 5% CO2, 37 °C for 48 h[24]. To evaluate the potential of saponins with/without infectious bronchitis virus (IBV) D274 antigen on macrophage polarization, THP-1 cells were treated with saponins at 3 µg/mL and then incubated for 24 h with or without 4 µL of inactivated IBV D274 antigens (final titer of 1 HA). […] Based on the results of our previous research, the saponin concentration was selected as a non-cytotoxic concentration. At the end of the incubation period, the cells were collected by trypsinization and washed three times with PBS. Following, 1 µL of PE anti-human CD80 (Biolegend, CA), FITC anti-human CD163 (Biolegend, CA), and FITC anti-human CD11b (Biolegend, CA) antibodies were added into the cells pellet and incubated for 45 min at room temperature in the dark. The cells pellets underwent two PBS washes following incubation. Finally, the cells were subsequently analyzed by flow cytometry (BD Accuri, C5). 1 × 10^4 cells were counted for each sample group using flow cytometry. All data are the results of at least three independent experiments carried out in triplicate. Data are presented as mean ± standard error of the mean (SEM) of samples. The untreated stained macrophage cells with anti-human CD80, FITC anti-human CD163, and FITC anti-human CD11b were compared with the results of treated cells to obtain from M0 polarization to M1 and M2 or both.
Figure 2 (a) Saponins without antigen treatment, (b) Saponins treated with antigen. THP-1 cells were treated with 15 ng/ml PMA and 3 µg/ml saponins and 1 HA titer of IBV D274 induced in the saponins with antigen group for 24 h incubation. The macrophage polarization was determined with flow cytometry. Each value represents the mean ± standard deviation of three independents measurements. (P < 0.05*, P < 0.01**, P < 0.001***).

[3] = system: HepG-2 human hepatocellular carcinoma cells; experiment: MTT cytotoxicity on HepG-2; format: cell-based; conditions: Homo sapiens, HepG2, 48 h, mean ± standard deviation, n = 3, – = Not detected
Experimental: as §1, §2

[4] = system: THP-1 originated-macrophage; experiment: MTT cytotoxicity on THP-1 originated macrophages; format: cell-based, human; conditions: mean ± standard deviation, n = 3, – = Not detected; for IC50: Homo sapiens, THP-1, 48 h
[5] = system: MDA-MB-231 human breast cancer cells; experiment: MTT cytotoxicity on MDA-MB-231; format: cell-based; conditions: Homo sapiens, MDA-MB-231, 48 h, mean ± standard deviation, n = 3, – = Not detected
Experimental: as §1, §2

[6] = system: U87MG human malignant glioma cell line; experiment: MTT cytotoxicity on U87MG; format: cell-based; conditions: Homo sapiens, U-87 MG, 48 h, mean ± standard deviation, n = 3, – = Not detected
Experimental: as §1, §2

[7] = system: A549 human lung adenocarcinoma cell line; experiment: MTT cytotoxicity on A549; format: cell-based; conditions: Homo sapiens, A549, 48 h, mean ± standard deviation, n = 3, – = Not detected
Experimental: as §1, §2

[8] = system: PC-3 human prostate adenocarcinoma cells; experiment: MTT cytotoxicity on PC-3; format: cell-based; conditions: Homo sapiens, 48 h, mean ± standard deviation, n = 3, – = Not detected
Experimental: as §1, §2

[9] = system: HeLa human cervical gland carcinoma cells; experiment: MTT cytotoxicity on HeLa; format: cell-based; conditions: Homo sapiens, HeLa, 48 h, mean ± standard deviation, n = 3, – = Not detected
Experimental: as §1, §2

[10] = with inactivated IBV D274 antigen (1 HA)

SMILES	IC50 [1] [µM]	MFI of CD 11b (M0 marker) [2, 10]	MFI of CD80 (M1 marker) [2, 10]	MFI of CD 11b (M0 marker) ([2]; without antigen)	MFI of CD80 (M1 marker) ([2]; without antigen)	MFI of CD163 (M2 marker) ([2]; without antigen)	IC50 [3] [µM]	IC50, THP-1 originated-macrophage ([4]; 48 h)	IC50 [4] [µM]	IC50 [5] [µM]	IC50 [6] [µM]	IC50 [7] [µM]	IC50 [8] [µM]	IC50 [9] [µM]
C[C@@H]1O[C@@H](O[C@H]2[C@H](O[C@H]3CC[C@@]4(C)C(CC[C@]5(C)C4CC=C4C6CC(C)(C)CC[C@]6(C(=O)O)CC[C@]45C)[C@]3(C)CO)OC[C@@H](O)[C@@H]2O)[C@H](O)[C@H](O)[C@H]1O (stereo partly drawn) [Compound 3a, 3-O-α-L-rhamopyranosyl-(1 → 2)-β-D-xylopyranosyl hederagenin]	> 66.6	29,092.45 ± 852.78	4911.00 ± 224.16	29,092.75 ± 2580.19	4,248.00 ± 137.13	6,408.00 ± 195.24*	> 66.6	did not have a cytotoxic effect	> 66.6	> 66.6	> 66.6	> 66.6	> 66.6	> 66.6
C[C@@H]1O[C@@H](O[C@H]2[C@H](O[C@H]3CC[C@@]4(C)C(CC[C@]5(C)C4CC=C4C6CC(C)(C)CC[C@]6(C(=O)O)CC[C@]45C)[C@]3(C)CO)O[C@H](CO)[C@H](O)[C@@H]2O)[C@H](O)[C@H](O)[C@H]1O (stereo partly drawn) [Compound 1, 3-O-α-L-rhamopyranosyl-(1 → 2)-β-D-galactopyranosyl-hederagenin]	> 64	31,644.21 ± 849.30	4062.43 ± 906.36	28,644.50 ± 849.33	4,536.00 ± 239.19	6,400.83 ± 196.02*	> 64		27.6 ± 0.52	15.1 ± 1.02	> 64	8.59 ± 0.19	> 64	48.1 ± 4.56
COc1cccc2c1C(=O)c1c(O)c3c(c(O)c1C2=O)C[C@@](O)(C(=O)CO)C[C@@H]3O[C@H]1C[C@H](N)[C@H](O)[C@H](C)O1 [Doxorubicin, doxorubicin, reference compound]	33.98 ± 0.02						36.85 ± 0.02		6.84 ± 0.18	70 ± 0.02	11.09 ± 0.02	40.01 ± 0.02	4.23 ± 0.02	23.95 ± 0.02
